# Measured values published in paper PMC3353862.
# Columns and labels:
# S. aureus = assay: Broth microdilution MIC testing; type: cell-based, Staphylococcus aureus; conditions: for MIC: Staphylococcus aureus, read-out: MIC S. aureus
# S. pneumoniae = assay: Broth microdilution MIC testing; type: cell-based, Streptococcus pneumoniae; conditions: for MIC: Streptococcus pneumoniae, read-out: MIC S. pneumo; for MIC S. pneumo: S. pneumoniae
# E. coli tolC mutants = assay: Broth microdilution MIC testing; type: cell-based, Escherichia coli; conditions: for MIC: Escherichia coli, read-out: MIC E. coli tolC; for MIC E. coli tolC: E. coli tolC mutants
# panel of bacteria = assay: Antibacterial activity against the panel of bacteria (MIC, overall); type: cell-based; conditions: for antibacterial activity: panel of bacteria; for MIC (antibacterial activity grade): key: +: poor; ++: moderate; +++: good antibacterial activity
# M. catarrhalis = assay: Broth microdilution MIC testing; type: cell-based, Moraxella catarrhalis; conditions: for MIC: Moraxella catarrhalis
# [1] = test system: E. coli modified with PMBN; assay: Broth microdilution MIC testing; type: cell-based, Escherichia coli; conditions: for MIC: Escherichia coli, read-out: MIC E. coli +PMBP; for MIC E. coli +PMBP: E. coli modified with PMBN
# H. influenzae = assay: Broth microdilution MIC testing; type: cell-based, Haemophilus influenzae; conditions: for MIC: Haemophilus influenzae, read-out: MIC H. flu; for MIC H. flu: H. influenzae
# [2] = test system: bacterial protein synthesis (aminoacylation/translation system); assay: aminoacylation/translation (A/T) assay; type: biochemical; conditions: for IC50: A/T assay, Table 1, read-out: IC50; for fold improvement in the IC50: relative to the original two compounds
# E. faecalis = assay: Broth microdilution MIC testing; type: cell-based, Enterococcus faecalis; conditions: for MIC: Enterococcus faecalis, read-out: MIC E. fae; for MIC E. fae: E. faecalis
Compound,MIC (S. aureus),MIC (S. pneumoniae),MIC (E. coli tolC mutants),antibacterial activity (panel of bacteria),MIC (M. catarrhalis),MIC [1],MIC (H. influenzae),IC50 [2],MIC (E. faecalis),MIC S. aureus (S. aureus),MIC S. pneumo (S. pneumoniae),MIC E. coli tolC (E. coli tolC mutants),MIC M. cat (M. catarrhalis),MIC E. coli +PMBP [1],MIC H. flu (H. influenzae),MIC E. fae (E. faecalis),MIC (antibacterial activity grade) (panel of bacteria; Table 3),other results
Oc1cccc(CN2CCc3nc(-c4ccccn4)nc(O)c3C2)c1 [Compound 321526],> 128 mg/L,> 128 mg/L,> 128 mg/L,little or no anti-bacterial activity,64 mg/L,> 128 mg/L,> 128 mg/L,3.5 µM,> 128 mg/L,–,–,–,–,–,–,–,–,–
CCN(CC)Cc1cc(CN2CCc3nc(-c4ccccn4)[nH]c(=O)c3C2)ccc1OC [Compound 323193],–,–,–,all antibacterial activity was lost,–,–,–,4.1 µM,–,> 128 mg/L,> 128 mg/L,> 128 mg/L,> 128 mg/L,> 128 mg/L,> 128 mg/L,> 128 mg/L,–,–
COc1cc(CN2CCc3nc(-c4ccccn4)[nH]c(=O)c3C2)ccc1OCC(N)=O [Compound 323200],–,–,–,MIC was above maximum testing concentrations for the entire panel of bacteria,–,–,–,0.4 µM,–,> 128 mg/L,> 128 mg/L,> 128 mg/L,> 128 mg/L,> 128 mg/L,> 128 mg/L,> 128 mg/L,–,fold improvement in the IC50 [2]: three to sevenfold
CN(C)Cc1ccc(CN2CCc3nc(-c4ccccn4)[nH]c(=O)c3C2)cc1 [Compound 323201],–,–,–,all antibacterial activity was lost,–,–,–,2.1 µM,–,> 128 mg/L,> 128 mg/L,> 128 mg/L,> 128 mg/L,> 128 mg/L,> 128 mg/L,> 128 mg/L,–,–
CN(C)c1ccc(CN2CCc3nc(-c4ccccn4)[nH]c(=O)c3C2)cc1 [Compound 323218],–,–,–,–,–,–,–,0.24 µM,–,> 128 mg/L,32 mg/L,128 mg/L,4 mg/L,64 mg/L,16 mg/L,> 128 mg/L,–,MIC (antibacterial activity grade) (panel of bacteria; Table 2): +; fold improvement in the IC50 [2]: five and tenfold
COc1cc(CN2CCc3nc(-c4ccccn4)[nH]c(=O)c3C2)cc(OC)c1OC [Compound 323221],–,–,–,abolished both biochemical and microbiological activities,–,–,–,> 300 µM,–,> 128 mg/L,> 128 mg/L,> 128 mg/L,> 128 mg/L,> 128 mg/L,> 128 mg/L,> 128 mg/L,–,biochemical activity in the A/T assay [2]: abolished both biochemical and microbiological activities
O=c1[nH]c(-c2ccccn2)nc2c1CN(Cc1cc3c(cc1Cl)OCO3)CC2 [Compound 323227],–,–,–,–,–,–,–,0.37 µM,–,> 128 mg/L,64 mg/L,64 mg/L,8 mg/L,> 128 mg/L,32 mg/L,> 128 mg/L,–,MIC (antibacterial activity grade) (panel of bacteria; Table 2): +; fold improvement in the IC50 [2]: three to sevenfold
O=c1[nH]c(-c2ccccn2)nc2c1CN(Cc1cc(F)ccc1F)CC2 [Compound 323228],–,–,–,–,–,–,–,0.3 µM,–,–,8 mg/L,16 mg/L,0.5 mg/L,16 mg/L,4 mg/L,64 mg/L,–,MIC (antibacterial activity grade) (panel of bacteria; Table 2): ++
CC(C)Oc1cccc(CN2CCc3nc(-c4ccccn4)[nH]c(=O)c3C2)c1 [Compound 323229],–,–,–,–,–,–,–,0.53 µM,–,64 mg/L,8 mg/L,16 mg/L,0.5 mg/L,16 mg/L,8 mg/L,64 mg/L,–,MIC (antibacterial activity grade) (panel of bacteria; Table 2): ++
Oc1nc(-c2ccccn2)nc2c1CCN(Cc1ccc(Cl)cc1)C2 [Compound 323338],16 mg/L,4 mg/L,4 mg/L,–,≤ 0.12 mg/L,8 mg/L,2 mg/L,64.4 µM,16 mg/L,–,–,–,–,–,–,–,+++,–
O=c1[nH]c(-c2ccccn2)nc2c1CN(Cc1cc(Cl)cc(Cl)c1)CC2 [Compound 323339],–,–,–,–,–,–,–,19 µM,–,32 mg/L,4 mg/L,2 mg/L,≤0.12 mg/L,2 mg/L,8 mg/L,64 mg/L,+++,–
O=c1[nH]c(-c2ccccn2)nc2c1CN(Cc1cc(Cl)ccc1Cl)CC2 [Compound 323340],–,–,–,good antibacterial activity,–,–,–,> 300 µM,–,4 mg/L,2 mg/L,1 mg/L,≤0.12 mg/L,2 mg/L,1 mg/L,16 mg/L,+++,biochemical activity in the A/T assay [2]: no inhibitory effect
O=c1[nH]c(-c2ccccn2)nc2c1CN(Cc1ccc(Br)cc1)CC2 [Compound 323341],–,–,–,–,–,–,–,41.4 µM,–,16 mg/L,4 mg/L,8 mg/L,≤0.12 mg/L,16 mg/L,2 mg/L,32 mg/L,+++,–
O=c1[nH]c(-c2ccccn2)nc2c1CN(Cc1ccc(Cl)c(Cl)c1)CC2 [Compound 323342],–,–,–,–,–,–,–,28.9 µM,–,32 mg/L,2 mg/L,4 mg/L,≤0.12 mg/L,16 mg/L,2 mg/L,32 mg/L,+++,–
O=c1[nH]c(-c2ccccn2)nc2c1CN(Cc1ccc(Cl)cc1Cl)CC2 [Compound 323343],–,–,–,–,–,–,–,8.24 µM,–,8 mg/L,2 mg/L,4 mg/L,≤0.12 mg/L,2 mg/L,1 mg/L,32 mg/L,+++,–
O=c1[nH]c(-c2ccccn2)nc2c1CN(Cc1cccc(Cl)c1Cl)CC2 [Compound 323344],–,–,–,–,–,–,–,11.6 µM,–,8 mg/L,2 mg/L,1 mg/L,≤0.12 mg/L,4 mg/L,4 mg/L,32 mg/L,+++,–
Cn1c(-c2ccccn2)nc2c(c1=O)CN(Cc1ccc(Cl)cc1)CC2 [Compound 323345],> 128 mg/L,128 mg/L,128 mg/L,abolished most biochemical and antibacterial activities,32 mg/L,128 mg/L,64 mg/L,> 300 µM,> 128 mg/L,–,–,–,–,–,–,–,–,biochemical activity in the A/T assay [2]: abolished most biochemical and antibacterial activities
Cc1nc(-c2nc3c(c(=O)[nH]2)CN(Cc2ccc(Cl)cc2)CC3)cs1 [Compound 323356],> 128 mg/L,128 mg/L,128 mg/L,slight antibacterial activity,8 mg/L,> 128 mg/L,64 mg/L,> 300 µM,128 mg/L,–,–,–,–,–,–,–,–,biochemical activity in the A/T assay [2]: abolished all biochemical activity
O=C(Cc1ccc(Cl)cc1)N1CCc2nc(-c3ccccn3)[nH]c(=O)c2C1 [Compound 323369],128 mg/L,64 mg/L,64 mg/L,–,4 mg/L,32 mg/L,16 mg/L,2.01 µM,64 mg/L,–,–,–,–,–,–,–,–,–
Cc1cccc(-c2nc3c(c(=O)[nH]2)CN(Cc2ccc(Cl)cc2)CC3)n1 [Compound 332052],> 128 mg/L,> 128 mg/L,> 128 mg/L,–,32 mg/L,> 128 mg/L,> 64 mg/L,> 300 µM,> 128 mg/L,–,–,–,–,–,–,–,–,biochemical activity in the A/T assay [2]: completely abolished activity
O=c1[nH]c(-c2ccco2)nc2c1CN(Cc1ccc(Cl)cc1)CC2 [Compound 332053],> 128 mg/L,> 128 mg/L,> 128 mg/L,–,> 128 mg/L,> 128 mg/L,> 64 mg/L,> 300 µM,> 128 mg/L,–,–,–,–,–,–,–,–,biochemical activity in the A/T assay [2]: abolished all biochemical activity
O=c1nc(-c2ccccn2)nc2ccn(Cc3ccc(Cl)cc3)cc1-2 [Compound 332055],> 128 mg/L,128 mg/L,128 mg/L,–,32 mg/L,64 mg/L,16 mg/L,16.4 µM,64 mg/L,–,–,–,–,–,–,–,–,–
O=c1[nH]c(-c2cccs2)nc2c1CN(Cc1ccc(Cl)cc1)CC2 [Compound 332057],> 128 mg/L,> 128 mg/L,> 128 mg/L,–,> 128 mg/L,> 128 mg/L,> 128 mg/L,101 µM,> 128 mg/L,–,–,–,–,–,–,–,–,fold reduction of potency/biochemical activity in the A/T assay ([2]; relative to 321521): over 40 fold
